Results as given in publication PMC11200585, “Prospects for Prostate Cancer Chemotherapy: Cytotoxic Evaluation and Mechanistic Insights of Quinolinequinones with ADME/PK Profile” (Biomedicines, 2024).

Experiments:
Format in all cases: cell-based, human
DU-145 cells [1] = assay: Oxidative stress: intracellular ROS (DCFDA, flow cytometry); details: 1, 2.5, 5 µM, 24 h
Method: DU-145 cells were initially seeded at a density of 1 × 10^6 cells per well in 6-well plates. Cells were subjected to AQQ1 treatments as described earlier. After an incubation period, the cells were treated with varying concentrations of AQQ1 (1, 2.5, and 5 µM) for 24 h. ROS analysis was carried out using the DCFDA oxidation method according to Eruslanov and Kusmartsev with some modifications. For positive control, the cells were exposed to 100 µM H2O2 for 30 min. Then, the medium was discarded, 20 µM DCDFA (Sigma-Aldrich, USA) in culture medium was added to the wells, and plates were incubated for 15 min in the dark. The cells were analysed with NovoCyte (Agilent, Palo Alto, CA, USA) flow cytometry using NovoExpress version 1.6.2 software (Agilent, USA).

DU-145 cells [2] = assay: Apoptosis necrosis analysis (Annexin V-FITC / PI flow cytometry); details: 1, 2.5, 5 µM, 24 h
Method: To assess cellular apoptosis and necrosis, a fluorochrome-labelled Annexin V (FITC) and Propidium Iodide (PI) staining kit (SONY Biotechnology, San Jose, CA, USA) was used according to the manufacturer’s protocol. DU-145 cells were initially seeded at a density of 1 × 10^6 cells per well in 6-well plates. After an incubation period, the cells were treated with varying concentrations of AQQ1 (1, 2.5, and 5 µM) along with negative control for 24 h. Then, the cells were detached using trypsin and then suspended in 500 µL of 1× Binding Buffer. Subsequently, 3 µL of Propidium Iodide (PI) and 5 µL of Annexin V-FITC were added to the cell suspension, followed by a 15 min incubation at room temperature in the dark. Post-incubation, cell analysis was performed via flow cytometry using the BD FACS Calibur Flow Cytometry System. The percentages of apoptotic and necrotic cells were determined using BD CellQuest Pro Software version 5.1 (both from Becton Dickinson, Sunnyvale, CA, USA).

RXF 393 = assay: NCI-60 one-dose screen (renal cancer); details: 10 µM single dose, 48 h
CAKI-1 = assay: NCI-60 one-dose screen (renal cancer); details: 10 µM single dose, 48 h
M14 = assay: NCI-60 one-dose screen (melanoma); details: 10 µM single dose, 48 h

| SMILES | intracellular ROS levels (DU-145 cells [1]) | live and necrotic cell counts (DU-145 cells [2]) | GP (growth percentage) (RXF 393) [%] | GP (growth percentage) (CAKI-1) [%] | GP (growth percentage) (M14) [%] |
| --- | --- | --- | --- | --- | --- |
| COc1ccccc1NC1=C(Cl)C(=O)c2nc(C)ccc2C1=O [AQQ1] | significantly increased ROS levels dose-dependently | reduced live cell counts and increased necrotic cells | – | – | – |
| COc1cc(NC2=C(Cl)C(=O)c3nc(C)ccc3C2=O)cc(OC)c1 [AQQ5] | – | – | −97.24 | −96.53 | −95.99 |
